From patent US11325916B1, “Spiropyrrolidine derived antiviral agents” (priority 2021, dated 2022) come the findings set out here.

SMILES strings stand for the structures. Bounds are passed on as bounds.

The target in one test is SARS-CoV-2 3CL-protease (Severe acute respiratory syndrome coronavirus 2 (2019-nCoV) (SARS-CoV-2), UniProt P0DTD1). Kind of test: SARS-CoV-2 3C-Like (3CL) Protease Fluorescence Assay (FRET). The test is classed as biochemical.
The subject of test [1] is 229E human corona virus (hCoV). Kind of test: 229E Live Virus Assay (MRC-5 cells, CPE, ATPlite readout). Format: cell-based, hCoV-229E. Conditions: Human coronavirus 229E, MRC5, 144 h, read-out: 229E EC50.

In the case of `COc1cc(C(=O)N[C@@H](CC2CC2)C(=O)N(C)[C@@H](CC(C)(C)C)C(=O)N2C[C@]3(C[C@H]2C#N)C(=O)Nc2ccccc23)cc2cn(C3CC3)nc12` [Example 123], the IC50 at SARS-CoV-2 3CL-protease was below 100 nM. The EC50 in test [1] fell in the range of 100 to 1000 nM.

Take `CN(C(=O)[C@H](CC1CC1)NC(=O)c1cn(C2CC2)nn1)[C@@H](CC(C)(C)C)C(=O)N1C[C@]2(C[C@H]1C#N)C(=O)Nc1ccccc12` [Example 124]: the IC50 at SARS-CoV-2 3CL-protease is below 100 nM. Also, the EC50 in test [1] was below 100 nM.

Molecule `C[C@H](NC(=O)C(F)(F)F)C(=O)N(C)[C@@H](CC(C)(C)C)C(=O)N1C[C@]2(C[C@H]1C#N)C(=O)Nc1ccccc12` [Example 128] had an IC50 against SARS-CoV-2 3CL-protease below 100 nM. Also, in test [1], the EC50 is below 100 nM.

Take `[2H]C([2H])([2H])N(C(=O)[C@H](CC1CC1)NC(=O)C(F)(F)F)[C@@H](CC1CC1)C(=O)N1C[C@]2(C[C@H]1C#N)C(=O)Nc1ccccc12` [Example 134]: on SARS-CoV-2 3CL-protease, the IC50 was below 100 nM. Also, in test [1], the EC50 was below 100 nM.
